Experiments:
[1] = in vitro; settings: human
[2] = tested on: SARS-CoV-2 (strain 20A.EU2); test: microbe, parasite or virus in culture; settings: Severe acute respiratory syndrome coronavirus 2, 96 h, read-out: IC50 20A.EU2

CCC(CC)COC(=O)[C@H](C)N[P@](=O)(OC[C@H]1O[C@@](C#N)(c2ccc3c(N)ncnn23)[C@H](O)[C@@H]1O)Oc1ccccc1 [remdesivir, reference compound]
CC50 [1]: 43 µM | IC50 [2]: 0.0044 µM
